Here are results for 12 compounds from PubChem BioAssay (NCI).

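Exposure lasted 48 hours, with cells grown in 96-well plates and compounds tested at five concentrations. Abbreviation: GI50, concentration required for 50% inhibition of growth. TGI denotes the concentration required for complete inhibition of growth.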

Among the test systems are HOP-62 NSCLC; HT29 colon; IGROV1 ovarian; KM12 colon; NCI-H226 lung; NCI/ADR-RES ovarian; SR leukemia; TK-10 renal; UACC-62 melanoma; UO-31 renal.
Common to all, as to assay: NCI-60 cell line screen, 48 h

On to `COc1ccc(-c2nc(-c3cc(OC)cc(OC)c3)[nH]c2-c2ccc(OC)cc2)cc1`, for which the GI50 in the assay on HOP-62 NSCLC is above 100 µM; in the assay with HT29 colon, 4.97 µM; in the assay on IGROV1 ovarian it was above 100 µM; in the assay on KM12 colon, 6.2 µM; with NCI-H226 lung, 5.47 µM; with NCI/ADR-RES ovarian it was 9.76 µM. Moreover, the GI50 in the assay on SR leukemia was 2.43 µM; in the assay with TK-10 renal, 53.1 µM; in the assay with UACC-62 melanoma it was 4.75 µM; with UO-31 renal, 5.72 µM. The TGI in the assay with HOP-62 NSCLC, with HT29 colon, in the assay on IGROV1 ovarian, in the assay with KM12 colon, with NCI-H226 lung and in the assay on NCI/ADR-RES ovarian was above 100 µM in each case. For the same compound, the TGI is 8.74 µM in the assay with SR leukemia, above 100 µM with TK-10 renal, above 100 µM in the assay on UACC-62 melanoma and above 100 µM in the assay on UO-31 renal.

`COC(c1ccc(C(C)(C)C)cc1)(c1ccc(C(C)(C)C)cc1)c1ccc(C(C)(C)C)cc1`: the TGI with HOP-62 NSCLC, in the assay on HT29 colon, with IGROV1 ovarian, in the assay on KM12 colon, in the assay with NCI-H226 lung and in the assay with NCI/ADR-RES ovarian was above 100 µM in each case. Also, the TGI in the assay with SR leukemia, in the assay on TK-10 renal, in the assay with UACC-62 melanoma and with UO-31 renal was above 100 µM throughout.

For the compound `O=C1Nc2ccccc2/C1=C1\CCc2cc(O)ccc21`, the GI50 in the assay with HOP-62 NSCLC is 9.95 µM; with HT29 colon, 9.77 µM; in the assay with IGROV1 ovarian, 7.63 µM; in the assay on KM12 colon, 1.01 µM; with NCI-H226 lung, 12.4 µM; with NCI/ADR-RES ovarian, 7.65 µM. The GI50 in the assay with SR leukemia was 4.25 µM; with TK-10 renal, 10.7 µM; with UACC-62 melanoma, 7.73 µM; with UO-31 renal, 1.67 µM. Moreover, the TGI in the assay with HOP-62 NSCLC, in the assay with HT29 colon, in the assay on IGROV1 ovarian, in the assay with KM12 colon, in the assay with NCI-H226 lung and in the assay on NCI/ADR-RES ovarian was above 25 µM throughout. For the same compound, the TGI was above 25 µM in the assay with SR leukemia, above 25 µM in the assay with TK-10 renal, above 25 µM in the assay with UACC-62 melanoma and above 23.9 µM with UO-31 renal.

Consider `COC(=O)C1C(O)C(C(=O)OC)C(C)N(C)C1C` (stereo not given), for which the TGI with HOP-62 NSCLC, with HT29 colon, with IGROV1 ovarian, in the assay on KM12 colon, in the assay on NCI-H226 lung and in the assay on NCI/ADR-RES ovarian was above 100 µM each time. The TGI with SR leukemia, in the assay on TK-10 renal, in the assay on UACC-62 melanoma and in the assay with UO-31 renal was above 100 µM each time.

Consider `COc1ccc(-c2cnnn2-c2nonc2-n2cccc2)cc1`, for which the GI50 in the assay on HOP-62 NSCLC was 0.34 µM; with HT29 colon it was 0.128 µM; with IGROV1 ovarian, 0.536 µM; in the assay on KM12 colon it was 0.16 µM; in the assay with NCI-H226 lung, 0.705 µM; in the assay with NCI/ADR-RES ovarian, 0.102 µM. The GI50 with SR leukemia was 0.0451 µM; in the assay on TK-10 renal it was 2.12 µM; with UACC-62 melanoma, 0.529 µM; in the assay with UO-31 renal it was 0.298 µM. Also, the TGI is above 83.1 µM in the assay with HOP-62 NSCLC; 2.8 µM in the assay on HT29 colon; above 92.8 µM in the assay on IGROV1 ovarian; 8.53 µM with KM12 colon; 33.3 µM in the assay with NCI-H226 lung; 0.67 µM with NCI/ADR-RES ovarian. Moreover, the TGI with SR leukemia was above 60.3 µM; in the assay on TK-10 renal it was above 61 µM; in the assay with UACC-62 melanoma it was 28.2 µM; in the assay with UO-31 renal, 37.6 µM.

Turning to `Cc1ccc(OCCOCCOCCOCCOc2ccc(C)n(O)c2=S)c(=S)n1O`, the GI50 is 0.184 µM in the assay with HOP-62 NSCLC; below 0.01 µM in the assay on HT29 colon; below 0.01 µM with IGROV1 ovarian; 0.0818 µM with KM12 colon; below 0.0291 µM in the assay with NCI-H226 lung; below 0.0158 µM in the assay on NCI/ADR-RES ovarian. The GI50 in the assay on SR leukemia is 0.0616 µM; with TK-10 renal it was 0.527 µM; in the assay with UACC-62 melanoma it was 0.115 µM; in the assay with UO-31 renal it was 0.0177 µM. For the same compound, the TGI in the assay on HOP-62 NSCLC was above 100 µM; in the assay with HT29 colon, above 100 µM; in the assay with IGROV1 ovarian, 54.3 µM; with KM12 colon, above 100 µM; with NCI-H226 lung it was 12.7 µM; in the assay with NCI/ADR-RES ovarian, above 100 µM. Moreover, the TGI with SR leukemia is above 100 µM; in the assay with TK-10 renal, above 100 µM; with UACC-62 melanoma, 40.5 µM; in the assay with UO-31 renal it was 4.14 µM.

As for `CN(C)CCNCCN`, the TGI in the assay on HOP-62 NSCLC, with HT29 colon, in the assay on IGROV1 ovarian, in the assay on KM12 colon, in the assay on NCI-H226 lung and in the assay on NCI/ADR-RES ovarian was above 100 µM each time. Moreover, the TGI with SR leukemia, in the assay with TK-10 renal, in the assay on UACC-62 melanoma and with UO-31 renal was above 100 µM each time.

In the case of `C=CC(=O)N1CN(C(=O)C=C)CN(C(=O)C=C)C1`, the GI50 in the assay on HOP-62 NSCLC was 12.3 µM; in the assay on HT29 colon it was 3.26 µM; in the assay on IGROV1 ovarian it was 3.34 µM; in the assay with KM12 colon, 18.5 µM; with NCI-H226 lung, 5.87 µM; in the assay on NCI/ADR-RES ovarian, 6.81 µM. For the same compound, the GI50 in the assay on SR leukemia was 2.46 µM; in the assay on TK-10 renal, 2.36 µM; in the assay on UACC-62 melanoma it was 3.49 µM; in the assay on UO-31 renal, 2.19 µM. Besides, the TGI in the assay with HOP-62 NSCLC is 48.1 µM; in the assay with HT29 colon it was 10.4 µM; in the assay on IGROV1 ovarian it was 11.3 µM; in the assay with KM12 colon it was 38.6 µM; in the assay on NCI-H226 lung it was above 100 µM; with NCI/ADR-RES ovarian it was above 100 µM. Further, the TGI is 6.82 µM in the assay on SR leukemia, 5.7 µM in the assay on TK-10 renal, 12 µM in the assay on UACC-62 melanoma and 8.53 µM in the assay with UO-31 renal.

Regarding `COc1cc(/C=C\c2cc(OC)c(OC)c(OC)c2)cc(N/C=C\C(=O)c2c[nH]c3ccccc23)c1OC`, the GI50 with HOP-62 NSCLC was 11.6 µM; in the assay on HT29 colon, 2.28 µM; with IGROV1 ovarian, 1.23 µM; with KM12 colon it was 3.69 µM; with NCI-H226 lung it was 7.28 µM; in the assay with NCI/ADR-RES ovarian, 3.48 µM. Moreover, the GI50 with SR leukemia is 0.469 µM; in the assay on TK-10 renal, 1.86 µM; in the assay on UACC-62 melanoma, 1.39 µM; with UO-31 renal it was 0.326 µM. Also, the TGI was 28.1 µM in the assay on HOP-62 NSCLC; 5.14 µM with HT29 colon; 3.56 µM in the assay on IGROV1 ovarian; 14.1 µM with KM12 colon; 27.7 µM in the assay on NCI-H226 lung; 19.3 µM in the assay on NCI/ADR-RES ovarian. Also, the TGI in the assay on SR leukemia came to 3.38 µM; in the assay on TK-10 renal it was 3.54 µM; in the assay with UACC-62 melanoma, 3.33 µM; in the assay on UO-31 renal, 2.05 µM.

On to `CCc1ccc2c(c1)C(=O)c1c-2n(CCCN=[N+]=[N-])c(=O)c2cc([N+](=O)[O-])ccc12`, for which the GI50 with HOP-62 NSCLC, with HT29 colon, with IGROV1 ovarian, in the assay on KM12 colon, with NCI-H226 lung and in the assay on NCI/ADR-RES ovarian was above 50 µM in each case. Moreover, the GI50 in the assay on SR leukemia, in the assay with TK-10 renal, in the assay on UACC-62 melanoma and with UO-31 renal was above 50 µM throughout. The TGI in the assay with HOP-62 NSCLC, in the assay on HT29 colon, with IGROV1 ovarian, in the assay with KM12 colon, in the assay with NCI-H226 lung and in the assay on NCI/ADR-RES ovarian was above 50 µM each time. In addition, the TGI in the assay with SR leukemia, in the assay with TK-10 renal, in the assay on UACC-62 melanoma and in the assay on UO-31 renal was above 50 µM each time.

With `NNCCc1ccc(NC(=O)CCCc2ccc(C(=O)Nc3ccccc3N)cc2)cc1`, the GI50 is 10.8 µM in the assay with HOP-62 NSCLC; 4.07 µM in the assay on HT29 colon; 31 µM in the assay with IGROV1 ovarian; 29.1 µM in the assay on KM12 colon; 16 µM with NCI-H226 lung; 21.6 µM in the assay on NCI/ADR-RES ovarian. Moreover, the GI50 with SR leukemia is 3.24 µM; in the assay with TK-10 renal it was 2.03 µM; in the assay on UACC-62 melanoma, 3.79 µM; with UO-31 renal, 4.8 µM. Further, the TGI with HOP-62 NSCLC, in the assay with HT29 colon, in the assay on IGROV1 ovarian, in the assay on KM12 colon, in the assay on NCI-H226 lung and with NCI/ADR-RES ovarian was above 100 µM in each case. Besides, the TGI is above 100 µM in the assay on SR leukemia, above 100 µM in the assay on TK-10 renal, 31.8 µM in the assay with UACC-62 melanoma and 53.6 µM in the assay with UO-31 renal.

Turning to `Nc1cc2c(cc1Br)[nH]c(=O)c1ccccc12`, the GI50 in the assay with HOP-62 NSCLC was 3.71 µM; in the assay on HT29 colon, 3.46 µM; with IGROV1 ovarian it was 3.61 µM; with KM12 colon, 3.4 µM; in the assay on NCI-H226 lung, 5.15 µM; in the assay with NCI/ADR-RES ovarian it was 9.25 µM. Besides, the GI50 in the assay on SR leukemia was 5.07 µM; in the assay on TK-10 renal, 4.27 µM; with UACC-62 melanoma, 6.02 µM; in the assay with UO-31 renal it was 2.73 µM. The TGI in the assay on HOP-62 NSCLC is 13.3 µM; in the assay on HT29 colon, 10.8 µM; in the assay on IGROV1 ovarian, 23.1 µM; with KM12 colon, 11.2 µM; in the assay with NCI-H226 lung, 27.5 µM; with NCI/ADR-RES ovarian, 35.1 µM. The TGI in the assay with SR leukemia came to 47.2 µM; in the assay with TK-10 renal it was 32.7 µM; in the assay on UACC-62 melanoma it was 20.1 µM; in the assay with UO-31 renal, 18.5 µM.
